What all share (format): functional, cell-based
The test system of experiment [1] is RAW264.7. Nature of the experiment: Antiinflammatory activity in mouse RAW264.7 cells assessed as inhibition of LPS-stimulated nitric oxide production after 24 hrs by […]. Conditions: RAW264.7, 24 h.
The test system of experiment [2] is RAW264.7. The experiment is described as follows: Suppression of iNOS mRNA expression in mouse RAW264.7 cells.
In experiment [3] the test system is RAW264.7. The experiment is described as follows: Antiinflammatory activity in mouse RAW264.7 cells assessed as inhibition of LPS-stimulated NO production at 5 to 20 ug/mL after 24 hrs by […]. Background: ELISA stands for enzyme-linked immunosorbent assay.

Calls of active or inactive are those of the source. No cut-off for these calls is given here.

For `CCCCCCC/C=C/C(=O)CCCCCCCC(=O)O`, in the experiment on RAW264.7 [1], the half-inhibitory concentration (IC50) was under 33.8 µM. Further, the result in the experiment with RAW264.7 [2] was Active. In the case of `CCCCCCCC/C=C(\C(=O)CCCCCCC(=O)O)c1ccccc1`, in the experiment with RAW264.7 [3], the result was inactive. With `CCCCCCC/C=C(\C(=O)CCCCCCCC(=O)OC)c1ccccc1`, the result in the experiment on RAW264.7 [3] was inactive. As for `CCCCCCCC(=O)/C(=C\CCCCCCCC(=O)OC)c1ccccc1`, the result in the experiment on RAW264.7 [3] was inactive. On to `CCCCCCC/C=C(\C(=O)CCCCCCCC(=O)O)c1ccccc1`, for which the outcome in the experiment on RAW264.7 [3] was inactive. As for `CCCCCCCCC(=O)/C=C/CCCCCCC(=O)O`, in the experiment on RAW264.7 [1], the IC50 is under 33.8 µM. Besides, in the experiment with RAW264.7 [2], the result was Active.

For orientation: IC50 means the concentration needed to halve the response being measured.
